ChEMBL document CHEMBL1201862, “PubChem BioAssay data set” (2004)
The source made the active and inactive calls.

Columns and labels:
INS1 = assay: protection of INS-1E cells from cytokine death, dose response, ATP luminescence, dry powder (AID 488844); format: functional, cell-based; conditions: Rattus norvegicus
[1] = target: T1, Voltage-gated inwardly rectifying potassium channel KCNH2 (Homo sapiens, UniProt Q12809); conditions: Potency;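 also: confirmatory quantitative high-throughput screen measuring inhibition of hERG channel activity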
T1 sequence (Q12809 whole entry): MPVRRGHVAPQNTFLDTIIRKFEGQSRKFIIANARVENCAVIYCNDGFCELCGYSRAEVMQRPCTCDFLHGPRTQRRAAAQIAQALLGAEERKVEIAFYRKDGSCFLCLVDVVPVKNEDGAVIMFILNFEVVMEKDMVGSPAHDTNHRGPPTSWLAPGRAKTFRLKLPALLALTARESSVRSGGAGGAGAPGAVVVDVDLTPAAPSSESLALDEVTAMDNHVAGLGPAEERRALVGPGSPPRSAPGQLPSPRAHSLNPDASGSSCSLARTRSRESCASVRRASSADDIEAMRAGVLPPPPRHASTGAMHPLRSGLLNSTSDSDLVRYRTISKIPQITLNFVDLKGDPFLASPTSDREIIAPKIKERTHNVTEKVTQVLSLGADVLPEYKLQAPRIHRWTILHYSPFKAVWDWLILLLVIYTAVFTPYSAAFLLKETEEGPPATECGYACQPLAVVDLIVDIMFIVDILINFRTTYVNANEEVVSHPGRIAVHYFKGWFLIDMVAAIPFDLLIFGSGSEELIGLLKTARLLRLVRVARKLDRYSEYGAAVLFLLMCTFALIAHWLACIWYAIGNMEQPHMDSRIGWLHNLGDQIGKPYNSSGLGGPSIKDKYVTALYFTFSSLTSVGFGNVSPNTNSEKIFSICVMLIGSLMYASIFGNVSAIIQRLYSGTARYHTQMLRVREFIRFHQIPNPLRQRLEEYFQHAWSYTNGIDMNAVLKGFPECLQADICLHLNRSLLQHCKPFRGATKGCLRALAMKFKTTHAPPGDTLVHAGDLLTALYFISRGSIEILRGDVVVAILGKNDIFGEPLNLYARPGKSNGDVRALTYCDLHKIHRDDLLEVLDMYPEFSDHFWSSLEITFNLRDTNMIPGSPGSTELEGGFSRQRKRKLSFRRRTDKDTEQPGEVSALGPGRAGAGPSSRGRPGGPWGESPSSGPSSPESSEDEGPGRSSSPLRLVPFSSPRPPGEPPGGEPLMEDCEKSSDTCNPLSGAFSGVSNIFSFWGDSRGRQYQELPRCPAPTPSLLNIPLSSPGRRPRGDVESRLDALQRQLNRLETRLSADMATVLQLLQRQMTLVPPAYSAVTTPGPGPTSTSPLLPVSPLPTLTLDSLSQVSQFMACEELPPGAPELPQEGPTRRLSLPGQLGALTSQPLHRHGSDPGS

[2] = target: Dual specificity protein kinase CLK1 (Homo sapiens, UniProt P49759); assay: CLK1 kinase inhibitors, off-target check, dose response, selectivity assay for Dyrk1A inhibitor project, biochemical, cherry-picked samples (AID 588811)
Phosphomannomutase 2 = Phosphomannomutase 2 (Homo sapiens, UniProt O15305); assay: Counter screen SAR assay for PMM2 inhibitors via a fluorescence intensity assay. [Related pubchem assays (depositor defined):AID1545, AID1574]
[3] = target: T2, Mannose-6-phosphate isomerase (Homo sapiens, UniProt P34949); assay: PMI enzyme inhibitors, confirmation, biochemical, fluorescence intensity (AID 1535)
T2 sequence (P34949 whole entry): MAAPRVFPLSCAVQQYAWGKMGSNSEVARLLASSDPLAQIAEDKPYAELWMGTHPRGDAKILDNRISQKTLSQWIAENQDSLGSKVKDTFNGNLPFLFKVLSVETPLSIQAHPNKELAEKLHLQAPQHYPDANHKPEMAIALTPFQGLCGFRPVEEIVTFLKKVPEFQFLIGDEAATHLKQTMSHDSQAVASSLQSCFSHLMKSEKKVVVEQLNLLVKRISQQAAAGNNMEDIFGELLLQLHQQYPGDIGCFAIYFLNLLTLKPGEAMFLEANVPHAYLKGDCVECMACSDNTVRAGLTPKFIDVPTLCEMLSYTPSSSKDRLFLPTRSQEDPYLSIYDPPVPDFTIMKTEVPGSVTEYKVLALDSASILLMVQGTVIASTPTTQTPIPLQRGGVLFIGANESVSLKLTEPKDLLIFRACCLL

[4] = target: Dual specificity protein phosphatase 3 (Homo sapiens, UniProt P51452); assay: SAR VHR1 Fluorescent Assay for In Vitro dose response studies Set 3. [Related pubchem assays (depositor defined):AID1654, AID1661, AID1878]; format: functional
Chain of Dual specificity protein phosphatase 3 (P51452 whole entry): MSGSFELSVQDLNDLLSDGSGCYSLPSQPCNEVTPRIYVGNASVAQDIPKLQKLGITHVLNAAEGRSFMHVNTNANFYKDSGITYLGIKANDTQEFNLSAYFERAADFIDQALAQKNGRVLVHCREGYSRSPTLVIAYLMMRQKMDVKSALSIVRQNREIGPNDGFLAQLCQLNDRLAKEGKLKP

[5] = cytotoxicity in HMLE control line with eGFP shRNA, dose response, counter-screen for HMLE_sh_ECad selective toxicity project, cell-based, HMLE_sh_eGFP, luminescence (AID 463074); format: functional, Homo sapiens;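 also: HMLE human mammary epithelial cells expressing control shRNA against eGFP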
[6] = Luminescence Cell-Based Dose Retest to Confirm Inhibitors of Cancer Stem Cells. [Related pubchem assays (depositor defined):AID2717, AID2721]; format: functional; conditions: Homo sapiens
[7] = target: T3, Heat shock factor protein 1 (Mus musculus, UniProt P38532); assay: HSF1 potentiators in luciferase reporter cells, confirmation, cell-based, NIH3T3, luminescence, dose retest (AID 435004); format: functional;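 also: stress induced by proteasome inhibitor MG132 added 30 min after compound; luciferase reporter driven by HSF1 response element in NIH3T3 cells; actives raise luminescence as potentiators of the MG132 stress response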
T3 sequence (P38532 whole entry): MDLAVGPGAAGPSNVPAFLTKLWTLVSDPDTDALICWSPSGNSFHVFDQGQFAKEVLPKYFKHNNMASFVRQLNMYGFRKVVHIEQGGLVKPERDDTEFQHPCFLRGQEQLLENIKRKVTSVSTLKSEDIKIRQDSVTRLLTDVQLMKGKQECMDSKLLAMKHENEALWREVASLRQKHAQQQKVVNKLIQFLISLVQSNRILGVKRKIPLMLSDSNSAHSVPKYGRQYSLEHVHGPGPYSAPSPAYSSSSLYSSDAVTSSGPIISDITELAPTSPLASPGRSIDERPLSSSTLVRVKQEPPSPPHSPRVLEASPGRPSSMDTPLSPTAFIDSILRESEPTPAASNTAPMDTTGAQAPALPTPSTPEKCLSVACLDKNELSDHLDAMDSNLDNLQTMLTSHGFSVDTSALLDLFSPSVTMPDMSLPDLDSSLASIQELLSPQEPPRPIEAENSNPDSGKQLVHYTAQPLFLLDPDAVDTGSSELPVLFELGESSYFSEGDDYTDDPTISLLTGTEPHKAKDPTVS

[8] = target: T4, Delta-type opioid receptor (Homo sapiens, UniProt P41143); assay: HTS Image-Based Screen for Antagonists of the DOR Receptor. [Related pubchem assays (depositor defined):AID1777, AID1785, AID1786, AID2133]; format: functional
T4 sequence (P41143 whole entry): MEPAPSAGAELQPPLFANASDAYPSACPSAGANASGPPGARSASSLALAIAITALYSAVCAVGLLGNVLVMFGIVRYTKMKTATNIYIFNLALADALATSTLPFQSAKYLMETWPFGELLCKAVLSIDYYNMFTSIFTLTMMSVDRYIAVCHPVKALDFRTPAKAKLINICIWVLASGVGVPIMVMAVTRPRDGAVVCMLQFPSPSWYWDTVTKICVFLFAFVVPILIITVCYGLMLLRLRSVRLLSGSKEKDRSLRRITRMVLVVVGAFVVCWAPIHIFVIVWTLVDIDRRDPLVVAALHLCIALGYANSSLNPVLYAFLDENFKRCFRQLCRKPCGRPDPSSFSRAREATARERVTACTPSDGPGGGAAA

[9] = Shn3 3'UTR reporter inhibitors, dose response, cell-based, Clone20 osteoblasts, firefly luciferase, cherry-picked (AID 624132); format: functional;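 also: firefly luciferase luminescence from reporter carrying the Shn3 3'UTR in osteoblasts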
[10] = target: E3 ubiquitin-protein ligase Mdm2 (Homo sapiens, UniProt Q00987); assay: enhancers of MDM2-luciferase reporter signal, concentration-effect titration, project on inhibitors of MDM2 ubiquitin ligase, cellular assay, luminescent readout, 384-well plate format (AID 1394); format: functional;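 also: MDM2 E3 inhibitors raise luminescence so EC50 is for signal enhancement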
Chain of E3 ubiquitin-protein ligase Mdm2 (Q00987 whole entry): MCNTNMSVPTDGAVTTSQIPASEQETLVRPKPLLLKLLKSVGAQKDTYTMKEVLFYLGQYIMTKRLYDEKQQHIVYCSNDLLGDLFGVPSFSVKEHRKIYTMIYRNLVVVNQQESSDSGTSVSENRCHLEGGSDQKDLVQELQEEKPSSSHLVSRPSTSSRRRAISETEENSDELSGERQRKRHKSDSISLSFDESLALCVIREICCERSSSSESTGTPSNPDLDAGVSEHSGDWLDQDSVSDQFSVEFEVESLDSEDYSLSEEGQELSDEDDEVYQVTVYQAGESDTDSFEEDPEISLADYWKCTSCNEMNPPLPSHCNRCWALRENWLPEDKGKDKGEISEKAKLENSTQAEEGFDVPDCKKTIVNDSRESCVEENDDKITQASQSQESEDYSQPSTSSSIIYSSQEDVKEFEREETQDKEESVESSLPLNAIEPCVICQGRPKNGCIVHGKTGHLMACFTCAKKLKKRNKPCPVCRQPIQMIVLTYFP

[11] = target: T1, Voltage-gated inwardly rectifying potassium channel KCNH2; assay: hERG protection from proarrhythmic block, potency, dose response, cell-based, thallium flux (AID 2121); format: ADME
Beta-galactosidase = Beta-galactosidase (Escherichia coli, UniProt Q8VNN2); format: functional
Chain of Beta-galactosidase (Q8VNN2 whole entry): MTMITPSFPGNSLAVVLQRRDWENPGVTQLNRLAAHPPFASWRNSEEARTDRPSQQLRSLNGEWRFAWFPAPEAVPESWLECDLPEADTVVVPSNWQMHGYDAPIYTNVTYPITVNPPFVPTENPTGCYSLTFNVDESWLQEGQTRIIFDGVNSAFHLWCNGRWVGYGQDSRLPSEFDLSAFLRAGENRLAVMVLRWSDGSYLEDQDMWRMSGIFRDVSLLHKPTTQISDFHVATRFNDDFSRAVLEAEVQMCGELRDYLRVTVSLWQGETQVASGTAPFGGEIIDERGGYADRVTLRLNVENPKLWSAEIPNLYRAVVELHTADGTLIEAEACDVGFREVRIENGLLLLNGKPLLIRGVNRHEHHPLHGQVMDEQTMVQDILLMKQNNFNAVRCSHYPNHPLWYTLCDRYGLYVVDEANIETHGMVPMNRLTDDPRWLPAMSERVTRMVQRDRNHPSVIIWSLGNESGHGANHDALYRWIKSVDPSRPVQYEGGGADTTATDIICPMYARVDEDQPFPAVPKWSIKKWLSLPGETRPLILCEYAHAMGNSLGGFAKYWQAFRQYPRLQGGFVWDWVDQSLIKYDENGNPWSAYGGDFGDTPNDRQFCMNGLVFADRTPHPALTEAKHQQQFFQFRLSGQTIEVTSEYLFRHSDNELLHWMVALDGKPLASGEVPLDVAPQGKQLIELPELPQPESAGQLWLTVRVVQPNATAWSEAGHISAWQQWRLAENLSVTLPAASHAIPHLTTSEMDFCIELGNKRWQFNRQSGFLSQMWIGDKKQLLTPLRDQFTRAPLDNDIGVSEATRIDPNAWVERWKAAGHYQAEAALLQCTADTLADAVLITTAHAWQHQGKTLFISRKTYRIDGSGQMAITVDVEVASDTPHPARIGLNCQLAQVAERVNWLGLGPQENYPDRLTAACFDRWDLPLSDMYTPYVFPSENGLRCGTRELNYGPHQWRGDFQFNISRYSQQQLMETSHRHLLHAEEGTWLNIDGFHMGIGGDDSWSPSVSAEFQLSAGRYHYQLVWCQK

[12] = tested on: Streptococcus sp. 'group A'; assay: growth inhibition of control SK(-) GAS strain, dose response, counter-screen for streptokinase expression inhibitor project, luminescence, kanamycin, BacTiterGlo, confirmation (AID 1900); format: functional, organism-based
[13] = target: T4, Delta-type opioid receptor; assay: HTS Image-Based Screen for Agonists of the DOR Receptor. [Related pubchem assays (depositor defined):AID1777, AID1786, AID2133]; format: functional
[14] = control 3'UTR Renilla luciferase suppression, dose response, counter-screen for Shn3 inhibitor project, cell-based, Clone20-Shn3RL, cherry-picked (AID 624133); format: functional
[15] = target: T5, Kappa-type opioid receptor (Homo sapiens, UniProt P41145); format: functional
T5 sequence (P41145 whole entry): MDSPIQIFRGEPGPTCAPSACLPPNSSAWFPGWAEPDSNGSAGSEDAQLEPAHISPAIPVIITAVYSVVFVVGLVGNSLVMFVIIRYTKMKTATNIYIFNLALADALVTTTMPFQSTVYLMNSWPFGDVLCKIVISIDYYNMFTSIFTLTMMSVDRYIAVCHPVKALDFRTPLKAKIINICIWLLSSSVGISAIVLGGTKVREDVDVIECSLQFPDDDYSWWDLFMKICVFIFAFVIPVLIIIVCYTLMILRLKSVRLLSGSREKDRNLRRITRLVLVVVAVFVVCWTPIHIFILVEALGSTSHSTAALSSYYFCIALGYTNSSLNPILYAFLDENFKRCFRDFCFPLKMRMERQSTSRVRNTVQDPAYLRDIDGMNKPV

[16] = target: Induced myeloid leukemia cell differentiation protein Mcl-1 (Homo sapiens, UniProt Q07820); format: functional
Chain of Induced myeloid leukemia cell differentiation protein Mcl-1 (Q07820 whole entry): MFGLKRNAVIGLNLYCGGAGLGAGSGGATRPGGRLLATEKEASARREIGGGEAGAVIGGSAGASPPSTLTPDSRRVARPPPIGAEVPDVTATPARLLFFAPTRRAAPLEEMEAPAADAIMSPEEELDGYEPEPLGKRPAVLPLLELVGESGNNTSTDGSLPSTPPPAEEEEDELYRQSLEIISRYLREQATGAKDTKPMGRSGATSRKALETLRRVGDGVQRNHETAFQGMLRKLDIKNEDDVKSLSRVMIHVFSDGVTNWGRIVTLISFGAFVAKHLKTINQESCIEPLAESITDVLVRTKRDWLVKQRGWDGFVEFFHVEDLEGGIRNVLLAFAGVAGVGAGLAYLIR

[17] = HepG2 cell cytotoxicity, dose response, cytotoxicity control for Shn3 inhibitor project, CellTiter-Glo, cherry-picked (AID 624134); format: functional, cell-based
Vero = assay: cells; format: functional; conditions: Chlorocebus sabaeus
[18] = target: T5, Kappa-type opioid receptor; format: functional; remark: listed apart in the source
Streptococcus = assay: Group A Streptococcus viability loss, dose response, counter-screen for streptokinase expression inhibitor project, luminescence, BacTiterGlo (AID 1915); format: functional, organism-based; conditions: read-out: EC50;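 also: potency for reduction of bacterial viability or growth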
Mu-type opioid receptor = Mu-type opioid receptor (Homo sapiens, UniProt P35372); assay: HTS Image-Based Screen for Agonists of the MOR Receptor. [Related pubchem assays (depositor defined):AID1777, AID1785, AID1786, AID2133]; format: functional;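 also: imaging of beta-arrestin GFP recruitment into spots after receptor activation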
[19] = target: Potassium voltage-gated channel subfamily KQT member 2 (Rattus norvegicus, UniProt O88943); assay: KCNQ2 channel activators, analog series, SAR follow-up, automated patch clamp, KCNQ2-CHO cells (AID 493113); format: functional
[20] = target: T6, Short transient receptor potential channel 4 (Mus musculus, UniProt Q9QUQ5); assay: TRPC4 inhibition under acetylcholine activation, SAR follow-up, cell-based, acetylcholine stimulus, HEK293 TRPC4, Fluo-4 (AID 492996); format: functional
T6 sequence (Q9QUQ5 whole entry): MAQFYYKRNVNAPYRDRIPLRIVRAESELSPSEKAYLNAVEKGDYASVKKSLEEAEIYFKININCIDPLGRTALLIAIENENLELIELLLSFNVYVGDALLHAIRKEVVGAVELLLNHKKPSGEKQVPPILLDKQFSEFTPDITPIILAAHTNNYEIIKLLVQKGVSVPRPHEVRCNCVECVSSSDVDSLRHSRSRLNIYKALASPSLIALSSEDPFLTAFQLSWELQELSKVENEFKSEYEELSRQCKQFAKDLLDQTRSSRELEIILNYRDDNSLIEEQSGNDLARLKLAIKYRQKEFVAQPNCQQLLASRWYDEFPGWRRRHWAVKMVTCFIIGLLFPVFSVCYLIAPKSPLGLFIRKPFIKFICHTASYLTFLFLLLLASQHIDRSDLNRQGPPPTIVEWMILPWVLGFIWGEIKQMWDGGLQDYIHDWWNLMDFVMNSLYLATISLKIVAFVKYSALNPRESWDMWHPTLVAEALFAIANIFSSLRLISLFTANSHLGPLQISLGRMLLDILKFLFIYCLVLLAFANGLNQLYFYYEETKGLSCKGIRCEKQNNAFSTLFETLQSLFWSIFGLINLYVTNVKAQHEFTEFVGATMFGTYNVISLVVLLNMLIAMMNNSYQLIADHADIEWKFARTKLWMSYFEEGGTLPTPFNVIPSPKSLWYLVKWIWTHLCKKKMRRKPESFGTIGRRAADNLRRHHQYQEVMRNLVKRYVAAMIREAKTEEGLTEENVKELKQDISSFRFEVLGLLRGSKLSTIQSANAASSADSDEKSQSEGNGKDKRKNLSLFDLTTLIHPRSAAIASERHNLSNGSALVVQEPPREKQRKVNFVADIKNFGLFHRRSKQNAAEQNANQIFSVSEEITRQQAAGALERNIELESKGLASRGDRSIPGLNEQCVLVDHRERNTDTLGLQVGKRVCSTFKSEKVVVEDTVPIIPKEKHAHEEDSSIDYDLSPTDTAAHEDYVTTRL

[21] = target: Short transient receptor potential channel 6 (Mus musculus, UniProt Q61143); assay: TRPC6 inhibition potency of TRPC4 inhibitor analogs, dose response, selectivity assay for selective TRPC4 inhibitor project, HEK293 cells, membrane potential dye, IC50 (AID 492987); format: functional, cell-based
[22] = target: T6, Short transient receptor potential channel 4; assay: SAR Analysis for the identification of selective inhibits of the transient receptor potential cation channel C4 (TRPC4): Automated Electrophysiology. [Related pubchem assays (depositor defined):AID2256]; format: functional
[23] = target: T6, Short transient receptor potential channel 4; assay: TRPC4 inhibitor concentration-response, dose response, cell-based, HEK293 TRPC4/mu-opioid, DAMGO stimulus, Fluo-4 (AID 492994); format: functional
[24] = Luminescence Cell-Based Dose Confirmation HTS to Identify Inhibitors of Platelet Dense Granule Release. [Related pubchem assays: 1663 (Primary HTS), 1678 (Summary of Project)]; format: functional
fMet-Leu-Phe receptor = fMet-Leu-Phe receptor (Homo sapiens, UniProt P21462); assay: FPR ligands, dose response (AID 519); format: functional
Cytochrome P450 2D6 = Cytochrome P450 2D6 (Homo sapiens, UniProt P10635);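 also: CYP2D6 member of a cytochrome P450 panel assay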
Chain of Cytochrome P450 2D6 (P10635 whole entry): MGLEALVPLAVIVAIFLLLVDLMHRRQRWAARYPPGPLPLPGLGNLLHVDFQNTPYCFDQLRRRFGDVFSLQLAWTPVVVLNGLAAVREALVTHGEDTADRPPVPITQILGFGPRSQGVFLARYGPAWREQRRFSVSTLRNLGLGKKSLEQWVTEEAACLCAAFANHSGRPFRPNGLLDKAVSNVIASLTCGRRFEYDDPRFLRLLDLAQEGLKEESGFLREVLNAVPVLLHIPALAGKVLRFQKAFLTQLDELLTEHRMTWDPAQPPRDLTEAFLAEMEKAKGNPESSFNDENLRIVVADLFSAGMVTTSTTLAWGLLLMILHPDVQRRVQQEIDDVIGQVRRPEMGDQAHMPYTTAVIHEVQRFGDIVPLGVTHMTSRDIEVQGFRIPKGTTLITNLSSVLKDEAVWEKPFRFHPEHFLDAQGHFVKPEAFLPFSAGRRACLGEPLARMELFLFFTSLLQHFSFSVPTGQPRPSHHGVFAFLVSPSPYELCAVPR

[25] = target: Luciferin 4-monooxygenase (Photinus pyralis, UniProt P08659); assay: firefly luciferase enzyme inhibitors, dose response, biochemical, luminescence (AID 1891)
Cytochrome P450 2C19 = Cytochrome P450 2C19 (Homo sapiens, UniProt P33261); assay: Cytochrome panel assay with activity outcomes. Panel member name: p450-cyp2c19 Compounds with AC50 equal or less than 10 uM are considered active; format: functional; conditions: read-out: AC50
Chain of Cytochrome P450 2C19 (P33261 whole entry): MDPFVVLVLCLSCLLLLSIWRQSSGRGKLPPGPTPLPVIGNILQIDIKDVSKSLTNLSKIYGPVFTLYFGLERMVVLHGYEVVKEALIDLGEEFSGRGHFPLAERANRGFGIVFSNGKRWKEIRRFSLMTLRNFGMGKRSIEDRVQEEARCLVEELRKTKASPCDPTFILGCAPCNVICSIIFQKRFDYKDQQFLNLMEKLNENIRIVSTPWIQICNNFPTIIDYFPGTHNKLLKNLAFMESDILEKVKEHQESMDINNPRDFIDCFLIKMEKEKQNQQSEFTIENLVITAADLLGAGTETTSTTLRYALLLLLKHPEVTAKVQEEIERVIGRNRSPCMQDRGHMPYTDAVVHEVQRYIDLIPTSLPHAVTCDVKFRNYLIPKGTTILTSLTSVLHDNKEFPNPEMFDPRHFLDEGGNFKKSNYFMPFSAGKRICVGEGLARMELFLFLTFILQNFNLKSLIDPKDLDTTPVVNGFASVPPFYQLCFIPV

Compound: COc1ccc(S(=O)(=O)N(C)C[C@@H]2Oc3c(NS(=O)(=O)c4ccc(Cl)cc4)cccc3C(=O)N([C@@H](C)CO)C[C@H]2C)cc1
- AC50 (INS1): > 260 µM (inactive)

Compound: O=C(Cc1ccc(Cl)c(Cl)c1)N1CCCCC1CN1CCCC1 (centres undefined)
- AC50 [1]: 25.1 µM (inconclusive)

Compound: CN(Cc1cccs1)c1ncnc2ccc(-c3ccc4c(c3)OCO4)cc12
- AC50 [2]: < 1.95 nM (active)

Compound: Clc1nss/c1=N\c1ccccc1Br
- IC50 (Phosphomannomutase 2): 57.3 µM (active)
- IC50 [3]: 11.9 µM (active)

Compound: CC(C)(C)c1ccc(C(=O)NCc2nnc(SCC(=O)Nc3nc4ccccc4s3)n2-c2cccc(Cl)c2)cc1
- IC50 [4]: > 66 µM (inactive)

Compound: Cc1ccc(OCC(=O)NNC(=S)NC(=O)c2cccs2)c(C)c1
- AC50 [5]: 37.8 µM (active)
- AC50 [6]: 9.13 µM (active)

Compound: N=C1S/C(=C\c2ccc(-c3cccc(Cl)c3)o2)C(=O)N1c1nccs1
- EC50 [7]: 5.39 µM (active)
- IC50 [8]: > 32 µM (inactive)
- AC50 [9]: 2.82 µM (active)
- EC50 [10]: 10 nM (not active)
- EC50 [11]: 420 nM (active)
- EC50 (Beta-galactosidase): > 31.5 µM (inactive)
- EC50 [12]: < 60 nM (active)
- EC50 [13]: > 32 µM (inactive)
- AC50 [14]: 6.17 µM (active)
- IC50 [15]: 5.72 µM (active)
- IC50 [16]: 745 nM (active)
- AC50 [17]: 13.7 µM (active)
- CC50 (Vero): 4.5 µM (active)
- IC50 [18]: > 32 µM
- EC50 (Streptococcus): 228 nM (active)
- EC50 (Mu-type opioid receptor): > 32 µM (inactive)

Compound: O=C(Nc1ccc(Cl)cc1Cl)C1CC2CCC1C2 (centres undefined)
- EC50 [19]: 1.52 µM (active)

Compound: Cc1cc(N2CCC[C@@H]2C)nc2ccccc12
- IC50 [20]: 17.1 µM (active)
- IC50 [21]: 11.8 µM (active)
- IC50 [22]: 4.26 µM (active)
- IC50 [23]: 2.5 µM (active)

Compound: Cc1ccc(C2C(C(=O)c3sc(C)nc3C)=C(O)C(=O)N2CCN2CCOCC2)o1 (centres undefined)
- EC50 [24]: > 112 µM (not active)
- Ki (fMet-Leu-Phe receptor): > 66.7 µM (inactive)
- AC50 (Cytochrome P450 2D6): inconclusive
- EC50 [25]: > 112 µM (not active)
- AC50 (Cytochrome P450 2C19): 5.62 nM (inconclusive)
